What is called IC50 is the concentration that gives 50% inhibition. Lower therefore signals higher potency.

In the test the target is T1, ENaC (Epithelial Sodium Channel) (Mus musculus, UniProt Q61180+Q9WU38+Q9WU39).
T1 construct: Mouse kidney M-1 cells were cultivated in DMEM; endogenous in cells; host or cells: Mouse kidney M-1 cells (dexamethasone-treated, on transwell filters)
T1 sequence (Q61180 1-699): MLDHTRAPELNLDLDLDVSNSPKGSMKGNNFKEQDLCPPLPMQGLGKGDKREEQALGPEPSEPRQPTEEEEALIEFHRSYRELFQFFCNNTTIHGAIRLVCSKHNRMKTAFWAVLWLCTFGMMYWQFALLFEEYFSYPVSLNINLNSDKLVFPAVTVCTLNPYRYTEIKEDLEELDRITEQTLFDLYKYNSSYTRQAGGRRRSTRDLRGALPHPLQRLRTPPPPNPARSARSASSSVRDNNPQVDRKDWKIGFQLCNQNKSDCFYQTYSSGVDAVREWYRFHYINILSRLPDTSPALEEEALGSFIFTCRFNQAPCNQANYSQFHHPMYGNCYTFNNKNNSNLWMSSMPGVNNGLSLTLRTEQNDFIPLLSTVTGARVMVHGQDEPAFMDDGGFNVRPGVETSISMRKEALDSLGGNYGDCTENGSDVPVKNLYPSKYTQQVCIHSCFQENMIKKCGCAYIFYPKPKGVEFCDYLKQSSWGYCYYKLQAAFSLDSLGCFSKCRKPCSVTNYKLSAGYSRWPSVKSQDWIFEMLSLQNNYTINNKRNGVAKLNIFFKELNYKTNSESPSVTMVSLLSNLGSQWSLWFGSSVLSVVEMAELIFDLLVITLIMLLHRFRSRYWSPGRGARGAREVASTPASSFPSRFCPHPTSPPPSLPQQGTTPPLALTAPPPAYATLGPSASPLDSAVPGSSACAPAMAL
T1 sequence (Q9WU38 1-638): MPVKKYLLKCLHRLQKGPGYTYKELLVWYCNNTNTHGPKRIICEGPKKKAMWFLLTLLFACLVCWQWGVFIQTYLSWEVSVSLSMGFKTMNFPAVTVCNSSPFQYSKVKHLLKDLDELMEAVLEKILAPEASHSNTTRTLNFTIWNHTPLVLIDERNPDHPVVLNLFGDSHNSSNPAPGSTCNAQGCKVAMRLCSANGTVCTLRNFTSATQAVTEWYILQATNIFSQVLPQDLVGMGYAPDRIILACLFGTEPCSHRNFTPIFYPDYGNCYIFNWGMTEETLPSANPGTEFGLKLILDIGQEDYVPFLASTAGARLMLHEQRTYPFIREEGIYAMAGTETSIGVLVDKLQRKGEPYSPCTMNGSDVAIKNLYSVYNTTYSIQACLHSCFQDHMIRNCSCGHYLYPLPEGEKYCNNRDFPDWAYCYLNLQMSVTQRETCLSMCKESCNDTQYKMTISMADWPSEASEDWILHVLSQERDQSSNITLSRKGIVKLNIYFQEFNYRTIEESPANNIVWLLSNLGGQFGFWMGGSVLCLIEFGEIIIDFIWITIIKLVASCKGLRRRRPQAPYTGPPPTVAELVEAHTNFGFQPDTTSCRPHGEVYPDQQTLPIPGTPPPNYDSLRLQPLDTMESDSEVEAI
T1 sequence (Q9WU39 1-655): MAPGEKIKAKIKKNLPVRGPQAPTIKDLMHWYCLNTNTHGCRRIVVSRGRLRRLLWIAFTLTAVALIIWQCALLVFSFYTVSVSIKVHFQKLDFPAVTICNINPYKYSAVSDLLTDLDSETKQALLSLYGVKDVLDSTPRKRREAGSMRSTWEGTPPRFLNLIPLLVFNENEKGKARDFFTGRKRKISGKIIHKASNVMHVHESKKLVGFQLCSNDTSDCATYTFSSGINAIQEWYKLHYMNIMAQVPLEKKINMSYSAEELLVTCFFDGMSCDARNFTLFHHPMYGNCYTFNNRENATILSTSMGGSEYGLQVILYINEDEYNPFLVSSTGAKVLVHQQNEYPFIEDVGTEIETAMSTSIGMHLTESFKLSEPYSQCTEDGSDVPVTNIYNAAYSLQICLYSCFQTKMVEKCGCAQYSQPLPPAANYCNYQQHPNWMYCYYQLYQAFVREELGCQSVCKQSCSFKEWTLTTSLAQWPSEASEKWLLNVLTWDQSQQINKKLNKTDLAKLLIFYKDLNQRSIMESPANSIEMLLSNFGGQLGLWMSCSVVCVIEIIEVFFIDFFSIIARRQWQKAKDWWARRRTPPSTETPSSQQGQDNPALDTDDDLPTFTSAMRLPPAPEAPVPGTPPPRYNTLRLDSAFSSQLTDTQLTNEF
Briefly: Ussing chamber: inhibition of amiloride sensitive short circuit current (I_sc) in M-1 cells. Type of test: cell-based. Conditions: mouse kidney M-1 cells. How it is done:
Mouse kidney M-1 cells were cultivated in DMEM containing 5% FCS and 5 μM dexamethasone for 10 to 12 days on polyester transwell filters. Filters were inserted into a teflon-coated well-plate which fit into the in-house ussing chamber system. Prior to measurement the medium of M-1 cells was replaced with Caco-2 transport buffer (Invitrogen, Germany). During measurements, the Ussing chamber temperature was kept at 37° C. Short circuit currents (I_sc) were measured in the voltage-clamp mode using an in-house built amplifier (Boehringer Ingelheim, Biberach) with the software package Lab View for data acquisition and analysis. The transepithelial electrical resistance (TEER) was determined by the application of voltage steps of ±5 mV every 5 sec. Compounds were administered at a final concentration of 3 μM or at increasing concentrations (1-3-10 μM) to the apical solution. At the end of each experiment the amiloride sensitive I_SC was measured by adding 3 μM amiloride to the apical compartment. Results are expressed as inhibition in percent of the amiloride effect or as IC50. With the example compounds given above, the following IC50 values were determined in the Ussing Chamber assay: […]
`N/C(=N\C(=O)c1nc(Cl)c(N)nc1N)NC1CCN(Cc2ccc(OCC(=O)O)cc2)CC1` [Example 8.8] showed an IC50 of 86 nM. To `NC(=NC(=O)c1nc(Cl)c(N)nc1N)NC1CCN(Cc2ccc(-n3cc(CCC(=O)N(CCO)CCO)nn3)cc2)CC1` [Example 3.12] belongs 5 nM.

With `NC(=NC(=O)c1nc(Cl)c(N)nc1N)NC1CCN(Cc2ccc(-c3cn(CCOCCOCCOCCO)nn3)cc2)CC1` [Example 3.26], half-maximal inhibition (IC50) required 8 nM. Against the preceding compound, the IC50 is about 1.6-fold higher. As for `NC(=NC(=O)c1nc(Cl)c(N)nc1N)NC1CCN(Cc2cccc(CC(=O)O)c2)CC1` [Example 8.10], the figure is 24 nM. To `NC(=NC(=O)c1nc(Cl)c(N)nc1N)NC1CCN(Cc2ccc(C(=O)NCCOCCOCCOCCn3cc(COC[B-](F)(F)F)nn3)cc2)CC1` [Example 3.9] belongs 20 nM; to `C#Cc1ccc(CN2CCC(NC(N)=NC(=O)c3nc(Cl)c(N)nc3N)CC2)cc1` [Example 1.50], 5 nM. Compound `NC(=NC(=O)c1nc(Cl)c(N)nc1N)NC1CCN(Cc2ccc(C(=O)NCCOCCOCCOCCn3cc(CN4CCNCC4)nn3)cc2)CC1` [Example 3.10] registered an IC50 of 23 nM. Compared with the last compound, the IC50 is about 4.6-fold higher.

Consider `CN(C)CCN(CCN(C)C)C(=O)c1ccc(CN2CCC(NC(N)=NC(=O)c3nc(Cl)c(N)nc3N)CC2)cc1` [Example 2.2], for which the IC50 came out at 6 nM. To `N/C(=N\C(=O)c1nc(Cl)c(N)nc1N)NC1CCN(Cc2ccc(-c3cn(CCOCCOCCO)nn3)cc2)CC1` [Example 5.4] belongs 3 nM; to `[N-]=[N+]=NCCOCCOCCOCCOc1ccc(CN2CCC(NC(N)=NC(=O)c3nc(Cl)c(N)nc3N)CC2)cc1` [Example 1.18], 7 nM; to `NC(=NC(=O)c1nc(Cl)c(N)nc1N)NC1CCN(Cc2ccc(S(=O)(=O)NCCO)cc2)CC1` [Example 1.63], 6 nM.

With `CN(Cc1cn(CCc2ccc(CN3CCC(NC(N)=NC(=O)c4nc(Cl)c(N)nc4N)CC3)cc2)nn1)C(=O)CCNCCOCCOCCOCCO` [Example 5.2], the IC50 was 14 nM. The compound `NC(=NC(=O)c1nc(Cl)c(N)nc1N)NC1CC2CCC(C1)N2Cc1ccccc1` (single isomer, unassigned) [Example 1.27] displayed an IC50 of 49 nM.

In the case of `CN(Cc1cn(-c2ccc(CN3CCC(NC(N)=NC(=O)c4nc(Cl)c(N)nc4N)CC3)cc2)nn1)C(=O)CCNC(=O)OC(C)(C)C` [Example 3.18], the IC50 was 5 nM. To `COC(=O)c1ccc(CN2CCC(N/C(N)=N/C(=O)c3nc(Cl)c(N)nc3N)CC2)c(Cl)c1` [Example 1.12] belongs 4 nM.

`NC(=NC(=O)c1nc(Cl)c(N)nc1N)NC1CCN(Cc2cccc(-c3cn(CCOCCOCCOCCNC(=O)c4cc(OCCOCCOCCOCCO)cc(OCCOCCOCCOCCO)c4)nn3)c2)CC1` [Example 5.12] had an IC50 of 62 nM. The compound `NC(=NC(=O)c1nc(Cl)c(N)nc1N)NC1CCN(Cc2ccc(CC(=O)O)cc2)CC1` [Example 8.13] came in with an IC50 of 44 nM.

For `NC(=NC(=O)c1nc(Cl)c(N)nc1N)NC1CCN(Cc2ccc(-c3cn(CCOCCOCCOCCNC(=O)c4cc(OCCOCCOCCOCCOC(c5ccccc5)(c5ccccc5)c5ccccc5)cc(OCCOCCOCCOCCOC(c5ccccc5)(c5ccccc5)c5ccccc5)c4)nn3)cc2)CC1` [Example 3.31], 49 nM corresponded to half-maximal inhibition (IC50). The IC50 values of the last two compounds are within 1.5-fold of each other.

`NC(=NC(=O)c1nc(Cl)c(N)nc1N)N[C@@H]1CCCN(Cc2ccc(C(=O)O)cc2)C1` [Example 1.62] had an IC50 of 87 nM. As for `COC(=O)COc1ccc(CN2CCC(N/C(N)=N/C(=O)c3nc(Br)c(N)nc3N)CC2)cc1` [Example 1.68], the figure is 11 nM; as for `CN(Cc1cn(-c2ccc(CN3CCC(NC(N)=NC(=O)c4nc(Cl)c(N)nc4N)CC3)cc2)nn1)C(=O)CCNCCOCCOCCOCCO` [Example 5.3], 2 nM; as for `COC(=O)c1ccccc1CN1CCC(NC(N)=NC(=O)c2nc(Cl)c(N)nc2N)CC1` [Example 1.43], 15 nM.

Regarding `NC(=NC(=O)c1nc(Cl)c(N)nc1N)NC1CCN(Cc2ccc(-c3cn(CCOCCOCCOCCNC(=O)c4cc(OCCOCCOCCOCCO)cc(OCCOCCOCCOCCO)c4)nn3)cc2)CC1` [Example 5.5], the 50% inhibitory concentration (IC50) was found to be 109 nM. Against the preceding compound, the IC50 is about 7.3-fold higher. As for `NC(=NC(=O)c1nc(Cl)c(N)nc1N)NC1CCN(Cc2ccc(-n3cc(CCC(=O)O)nn3)cc2)CC1` [Example 3.13], the figure is 57 nM. `NCc1ccc(CN2CCC(N/C(N)=N/C(=O)c3nc(Cl)c(N)nc3N)CC2)cc1` [Example 9.1] came in with an IC50 of 7 nM.

Turning to `CN(Cc1cn(CCc2ccc(CN3CCC(N/C(N)=N/C(=O)c4nc(Cl)c(N)nc4N)CC3)cc2)nn1)C(=O)CCN` [Example 4.1], the IC50 turned out to be 9 nM. The IC50 values of the last two compounds are within 1.5-fold of each other. For `NC(=NC(=O)c1nc(Cl)c(N)nc1N)NC1CCN(Cc2ccc(OCc3cn(CCOCCOCCOCCNC(=O)c4cc(OCCOCCOCCO)cc(OCCOCCOCCO)c4)nn3)cc2)CC1` [Example 5.8], the IC50 stood at 52 nM. To `[N-]=[N+]=NCCOCCOCCOCCNC(=O)c1ccc(CN2CCC(NC(N)=NC(=O)c3nc(Cl)c(N)nc3N)CC2)cc1` [Example 1.7] belongs 4 nM; to `NC(=NC(=O)c1nc(Cl)c(N)nc1N)NC1CCN(Cc2cccc(OCC(=O)O)c2)CC1` [Example 8.15], 37 nM; to `NC(=NC(=O)c1nc(Cl)c(N)nc1N)NC1CCN(Cc2cccc(-c3cn(CCOCCOCCOCCOCCOCCO)nn3)c2)CC1` [Example 5.9], 10 nM. As for `NC(=NC(=O)c1nc(Cl)c(N)nc1N)NC1CCN(Cc2cccc(-c3cn(CCOCCOCCOCCNCCOCCOCCO)nn3)c2)CC1` [Example 5.11], the figure is 7 nM; as for `[N-]=[N+]=NCCOCCOCCOCCN(CCOCCOCCO)C(=O)c1ccc(=O)n(Cc2ccc(CN3CCC(NC(N)=NC(=O)c4nc(Cl)c(N)nc4N)CC3)cc2)c1` [Example 1.56], 24 nM; as for `NC(=NC(=O)c1nc(Cl)c(N)nc1N)NC1CCN(Cc2ccc(-c3cn(CCOCCOCCOCCOCCOCCO)nn3)cc2)CC1` [Example 3.27], 1 nM.

In turn, `CC[N+](CC)(CC)Cc1ccc(CCn2cc(-c3cccc(CN4CCC(NC(N)=NC(=O)c5nc(Cl)c(N)nc5N)CC4)c3)nn2)cc1` [Example 3.38] displayed a half-maximal inhibitory concentration (IC50) of 1 nM.

Compound `NC(=NC(=O)c1nc(Cl)c(N)nc1N)NC1CCN(Cc2cccc(-c3cn(CCOCCOCCOCCOCCOCCOC(c4ccccc4)(c4ccccc4)c4ccccc4)nn3)c2)CC1` [Example 3.37] gave an IC50 of 9 nM.

Turning to `COC(=O)COc1cccc(CN2CCC(NC(N)=NC(=O)c3nc(Cl)c(N)nc3N)CC2)c1` [Example 1.44], inhibition was half-maximal at 20 nM (IC50). This IC50 lies about 2.2-fold higher than the previous one.

The values are drawn from US8859559B2, “Substituted pyrazines and their use in the treatment of disease” (Boehringer Ingelheim International GmbH, priority 2011, dated 2014).
